Assay results reported in patent publication US20050208496A1, “Methods of testing for bronchial asthma or chronic obstructive pulmonary disease” (Genox Research, Inc., priority 2002, published 2005).

Test system: mouse counterpart genes
Assay: Mouse GeneChip (MG-U74A to MG-U74C) analysis of lung and trachea of the OVA antigen-exposed bronchial hypersensitivity model, S-Sal group versus S-OVA group
Format: in vivo
[1] = S-Sal group versus S-OVA group, MG-U74 chip A, 1st
[2] = S-Sal group versus S-OVA group, MG-U74 chip A, 2nd
[3] = S-Sal group versus S-OVA group, MG-U74 chip A, 3rd
[4] = S-Sal group versus S-OVA group, MG-U74 chip B, 1st
[5] = S-Sal group versus S-OVA group, MG-U74 chip B, 2nd
[6] = S-Sal group versus S-OVA group, MG-U74 chip B, 3rd
[7] = S-Sal group vs S-OVA group, 1st, chip A, P/A call A
[8] = S-Sal group vs S-OVA group, 1st, chip A, P/A call P
[9] = S-Sal group vs S-OVA group, 1st, chip B, P/A call A
[10] = S-Sal group vs S-OVA group, 1st, chip B, P/A call P
[11] = S-Sal group vs S-OVA group, 1st, chip C, P/A call P
[12] = S-Sal group vs S-OVA group, 2nd, chip A, P/A call A
[13] = S-Sal group vs S-OVA group, 2nd, chip A, P/A call P
[14] = S-Sal group vs S-OVA group, 2nd, chip B, P/A call A
[15] = S-Sal group vs S-OVA group, 2nd, chip B, P/A call P
[16] = S-Sal group vs S-OVA group, 2nd, chip C, P/A call P
[17] = S-Sal group vs S-OVA group, 3rd, chip A, P/A call A

In the case of “ovalbumin [OVA antigen, ovalbumin antigen used for sensitization and inhalation to induce bronchial hypersensitivity in mice]”, the “Fold Change 1st, contactin 1 (mouse Probe ID 92936_at)” value [1] is reported as 1.3, the “Fold Change 1st, lectin, galactose binding, soluble 1 (mouse Probe ID 99669_at)” value [1] is reported as 1.6 and the “Fold Change 1st, peptidyl arginine deiminase, type I (mouse Probe ID 95343_at)” value [1] is reported as 1.3. For the same substance, the “Fold Change 1st, peptidyl arginine deiminase, type III (mouse Probe ID 103803_at)” value [1] was 2.2, the “Fold Change 2nd, contactin 1 (mouse Probe ID 92936_at)” value [2] was 1.9 and the “Fold Change 2nd, lectin, galactose binding, soluble 1 (mouse Probe ID 99669_at)” value [2] was 2. For the same substance, the “Fold Change 2nd, peptidyl arginine deiminase, type I (mouse Probe ID 95343_at)” value [2] was 0.83, the “Fold Change 2nd, peptidyl arginine deiminase, type III (mouse Probe ID 103803_at)” value [2] was 1.4 and the “Fold Change 3rd, contactin 1 (mouse Probe ID 92936_at)” value [3] was 0.44. The “Fold Change 3rd, lectin, galactose binding, soluble 1 (mouse Probe ID 99669_at)” value [3] was 1.3, the “Fold Change 3rd, peptidyl arginine deiminase, type I (mouse Probe ID 95343_at)” value [3] was 0.67 and the “Fold Change 3rd, peptidyl arginine deiminase, type III (mouse Probe ID 103803_at)” value [3] was 1.5. The “Fold Change 1st, aquaporin 5 (mouse Probe ID 113916_at)” value [4] was 0.77, the “Fold Change 1st, contactin 1 (mouse Probe ID 105826_at)” value [4] was 0.83 and the “Fold Change 1st, contactin 1 (mouse Probe ID 164059_f_at)” value [4] was 1.7. For the same substance, the “Fold Change 2nd, aquaporin 5 (mouse Probe ID 113916_at)” value [5] was 0.83, the “Fold Change 2nd, contactin 1 (mouse Probe ID 105826_at)” value [5] was 1 and the “Fold Change 2nd, contactin 1 (mouse Probe ID 164059_f_at)” value [5] was 0.91. The “Fold Change 3rd, aquaporin 5 (mouse Probe ID 113916_at)” value [6] was 0.59, the “Fold Change 3rd, contactin 1 (mouse Probe ID 105826_at)” value [6] was 1.1 and the “Fold Change 3rd, contactin 1 (mouse Probe ID 164059_f_at)” value [6] was 0.77. The “Fold Change 1st, contactin 1 (mouse Probe ID 170177_r_at)” value (S-Sal group versus S-OVA group, MG-U74 chip C, 1st) was 0.67, the “Fold Change 2nd, contactin 1 (mouse Probe ID 170177_r_at)” value (S-Sal group versus S-OVA group, MG-U74 chip C, 2nd) was 1.1 and the “Fold Change 3rd, contactin 1 (mouse Probe ID 170177_r_at)” value (S-Sal group versus S-OVA group, MG-U74 chip C, 3rd) was 1.5. The “Fold Change, AXL receptor tyrosine kinase (mouse probe 99136_at)” value (“Fold Change … (mouse probe 99136_at)” below) [7] was 0.357, the “Fold Change, claudin 4 (mouse probe 101410_at)” value [7] was 1.8 and the “Fold Change, histocompatibility-2 complex class I-like sequence (mouse probe 101433_at)” value (“Fold Change … (mouse probe 101433_at)” below) [7] was 0.526. The “Fold Change, interferon gamma inducible protein 30 (mouse probe 97444_at)” value [7] was 1.3, the “Fold Change, interleukin 1 receptor-like 1 (mouse probe 98500_at)” value [7] was 1.3 and the “Fold Change, low density lipoprotein receptor-related protein associated protein 1 (mouse probe 161988_f_at)” value [7] was 1.3. For the same substance, the “Fold Change, matrix metalloproteinase 7 (mouse probe 92917_at)” value [7] was 2.3, the “Fold Change, met proto-oncogene (mouse probe 100309_at)” value [7] was 0.667 and the “Fold Change, phosphotidylinositol transfer protein, beta (mouse probe 102697_at)” value [7] was 0.303. For the same substance, the “Fold Change, A kinase anchor protein 2 (mouse probe 101435_at)” value [8] was 0.833, the “Fold Change, DNA segment. Chr 16. ERATO Doi 269, expressed (mouse probe 97822_at)” value [8] was 1 and the “Fold Change, DNA segment. Chr 16. ERATO Doi 269, expressed (mouse probe 97823_g_at)” value [8] was 1.1. For the same substance, the “Fold Change, arachidonate 15-lipoxygenase (mouse probe 98758_at)” value [8] was 1.1, the “Fold Change, cholesterol 25-hydroxylase (mouse probe 104509_at)” value [8] was 1.1 and the “Fold Change, claudin 5 (mouse probe 104516_at)” value [8] was 1.1. For the same substance, the “Fold Change, decay accelerating factor 1 (mouse probe 103617_at)” value [8] was 1.2, the “Fold Change, interferon-stimulated protein (20 kDa) (mouse probe 103432_at)” value [8] was 1 and the “Fold Change, low density lipoprotein receptor-related protein associated protein 1 (mouse probe 100086_at)” value [8] was 1.1. The “Fold Change, membrane-associated protein 17 (mouse probe 96935_at)” value [8] was 1, the “Fold Change, phosphotidylinositol transfer protein, beta (mouse probe 102696_s_at)” value (“Fold Change … (mouse probe 102696_s_at)” for short) (S-Sal group vs S-OVA group, 1st, chip A, P/A call P, counterpart of human probe 353_at) was 1.3 and the “Fold Change … (mouse probe 102696_s_at)” value (S-Sal group vs S-OVA group, 1st, chip A, P/A call P, counterpart of human probe 35017_f_at) was 1.3. For the same substance, the “Fold Change, histocompatibility 2, Q region locus 7 (mouse probe 98438_f_at)” value (from here on “Fold Change … (mouse probe 98438_f_at)”) (S-Sal group vs S-OVA group, 1st, chip A, P/A call P, counterpart of human probe 37420_i_at) was 1.3, the “Fold Change … (mouse probe 98438_f_at)” value (S-Sal group vs S-OVA group, 1st, chip A, P/A call P, counterpart of human probe 37421_f_at) was 1.3 and the “Fold Change, A kinase (PRKA) anchor protein 10 (mouse probe 163162_at)” value [9] was 0.5. The “Fold Change, ESTs Putative Ortholog of ISG-54K gene (mouse probe 164273_at)” value [9] was 1, the “Fold Change, ESTs, Highly similar to AF116721 8 PRO0907 [H. sapiens] (mouse probe 114151_at)” value [9] was 1 and the “Fold Change, neurotrophic tyrosine kinase, receptor type 1 (mouse probe 110116_at)” value [9] was 2.5. For the same substance, the “Fold Change, secreted end transmembrane 1 (mouse probe 115133_at)” value [9] was 0.435, the “Fold Change, MP and activin membrane-bound inhibitor, homolog (Xanopus laevis) (mouse probe 162531_at)” value [10] was 1 and the “Fold Change, decay accelerating factor 1 (mouse probe 107626_at)” value [10] was 1.3. For the same substance, the “Fold Change, viral hemorrhagic septicemia virus(VHSV) induced gene 1 (mouse probe 109385_at)” value [10] was 0.769, the “Fold Change, cholesterol 25-hydroxylase (mouse probe 133666_at)” value (S-Sal group vs S-OVA group, 1st, chip C, P/A call A) was 0.588 and the “Fold Change, deleted in bladder cancer chromosome region candidate 1 (human) Putative Ortholog (mouse probe 166806_at)” value [11] was 1.4. For the same substance, the “Fold Change, interferon-induced protein with tetratricopeptide repeats 1 (mouse probe 168299_f_at)” value [11] was 1.3, the “Fold Change, interleukin 1 receptor-like 1 (mouse probe 98501_at)” value (S-Sal group vs S-OVA group, 2nd, chip A) was 1.8 and the “Fold Change … (mouse probe 99136_at)” value [12] was 0.476. For the same substance, the “Fold Change, a disintegrin and metalloprotease domain 8 (mouse probe 103024_at)” value [12] was 3.4, the “Fold Change, claudin 4 (mouse probe 101410_at)” value [12] was 3.4 and the “Fold Change … (mouse probe 101433_at)” value [12] was 0.625. For the same substance, the “Fold Change, interferon gamma inducible protein 30 (mouse probe 97444_at)” value [12] was 1.9, the “Fold Change, matrix metalloproteinase 7 (mouse probe 92917_at)” value [12] was 1.6 and the “Fold Change, met proto-oncogene (mouse probe 100309_at)” value [12] was 1. For the same substance, the “Fold Change, phosphotidylinositol transfer protein, beta (mouse probe 102697_at)” value [12] was 0.333, the “Fold Change, matrix metalloproteinase 7 (mouse probe 162318_r_at)” value (S-Sal group vs S-OVA group, 2nd, chip A, P/A call M) was 1.7 and the “Fold Change, A kinase anchor protein 2 (mouse probe 101435_at)” value [13] was 0.833. The “Fold Change, DNA segment. Chr 16. ERATO Doi 269, expressed (mouse probe 97821_at)” value [13] was 1, the “Fold Change, DNA segment. Chr 16. ERATO Doi 269, expressed (mouse probe 97823_g_at)” value [13] was 1.1 and the “Fold Change, arachidonate 15-lipoxygenase (mouse probe 98758_at)” value [13] was 3.5. For the same substance, the “Fold Change, cholesterol 25-hydroxylase (mouse probe 104509_at)” value [13] was 3.1, the “Fold Change, claudin 5 (mouse probe 104516_at)” value [13] was 1.2 and the “Fold Change, decay accelerating factor 1 (mouse probe 103617_at)” value [13] was 1.5. For the same substance, the “Fold Change, interferon-stimulated protein (20 kDa) (mouse probe 103432_at)” value [13] was 1.2, the “Fold Change, interleukin 1 receptor-like 1 (mouse probe 98500_at)” value [13] was 3.4 and the “Fold Change, polycystic kidney disease 2 (mouse probe 100951_at)” value [13] was 0.667. The “Fold Change … (mouse probe 102696_s_at)” value (S-Sal group vs S-OVA group, 2nd, chip A, P/A call P, counterpart of human probe 353_at) was 1, the “Fold Change … (mouse probe 102696_s_at)” value (S-Sal group vs S-OVA group, 2nd, chip A, P/A call P, counterpart of human probe 35017_f_at) was 1 and the “Fold Change … (mouse probe 98438_f_at)” value (S-Sal group vs S-OVA group, 2nd, chip A, P/A call P, counterpart of human probe 37420_i_at) was 1.4. For the same substance, the “Fold Change … (mouse probe 98438_f_at)” value (S-Sal group vs S-OVA group, 2nd, chip A, P/A call P, counterpart of human probe 37421_f_at) was 1.4, the “Fold Change, ESTs Putative Ortholog of ISG-54K gene (mouse probe 164273_at)” value [14] was 1 and the “Fold Change, ESTs, Highly similar to AF116721 8 PRO0907 [H. sapiens] (mouse probe 114151_at)” value [14] was 1.2. The “Fold Change, decay accelerating factor 1 (mouse probe 164905_r_at)” value [14] was 1, the “Fold Change, neurotrophic tyrosine kinase, receptor type 1 (mouse probe 110116_at)” value [14] was 1.2 and the “Fold Change, secreted end transmembrane 1 (mouse probe 115133_at)” value [14] was 0.5. For the same substance, the “Fold Change, decay accelerating factor 1 (mouse probe 107626_at)” value [15] was 1.6, the “Fold Change, interferon gamma inducible protein 30 (mouse probe 164423_at)” value [15] was 4 and the “Fold Change, viral hemorrhagic septicemia virus(VHSV) induced gene 1 (mouse probe 109385_at)” value [15] was 1.7. For the same substance, the “Fold Change, deleted in bladder cancer chromosome region candidate 1 (human) Putative Ortholog (mouse probe 166806_at)” value [16] was 1.5, the “Fold Change, interferon-induced protein with tetratricopeptide repeats 1 (mouse probe 168299_f_at)” value [16] was 1.1 and the “Fold Change, interleukin 1 receptor-like 1 (mouse probe 98501_at)” value (S-Sal group vs S-OVA group, 3rd, chip A) was 1. The “Fold Change … (mouse probe 99136_at)” value [17] was 0.25, the “Fold Change, a disintegrin and metalloprotease domain 28 (mouse probe 101723_r_at)” value [17] was 1.8 and the “Fold Change … (mouse probe 101433_at)” value [17] was 0.833.
